Reference: patent publication US20220233512A1, “INHIBITING AN IMMUNE RESPONSE MEDIATED BY ONE OR MORE OF TLR2, RAGE, CCR5, CXCR4 AND CD4” (priority 2020, published 2022)

Molecular target: T1, mu opiate receptor (MOR) (Rattus norvegicus, UniProt P33535)
T1 construct: from tissue; host or cells: striatum (membrane preparation)
Assay: MOR agonist activity using [35S]GTPgS binding assay in striatal membranes
Format: biochemical
Set-up: MOR agonist activity (preliminary study): unit of the concentration uncertain
Settings: for MOR agonist activity (preliminary study): average of two runs
Experimental: To assess the mu opiate receptor (MOR) agonist activity of positive compounds from the FLNA screening, compounds were tested in a [^35S]GTPgS binding assay using striatal membranes. […] This assay measures a functional consequence of receptor occupancy at one of the earliest receptor-mediated events. The assay permits for traditional pharmacological parameters of potency, efficacy and antagonist affinity, with the advantage that agonist measures are not subjected to amplification or other modulation that may occur when analyzing parameters further downstream of the receptor.
Thus, striatal tissue was homogenized in 10 volumes of ice cold 25 mM HEPES buffer, pH 7.4, which contained 1 mM EGTA, 100 mM sucrose, 50 mg/ml leupeptin, 0.04 mM PMSF, 2 mg/ml soybean trypsin inhibitor and 0.2% 2-mercaptoethanol. The homogenates were centrifuged at 800×g for 5 minutes and the supernatants were centrifuged at 49,000×g for 20 minutes. The resulting pellets were suspended in 10 volume of reaction buffer, which contained 25 mM HEPES, pH 7.5, 100 mM NaCl, 50 mg/ml leupeptin, 2 mg/ml soybean trypsin inhibitor, 0.04 mM PMSF and 0.02% […].
The resultant striatal membrane preparation (200 mg) was admixed and maintained (incubated) at 30° C. for 5 minutes in reaction buffer as above that additionally contained 1 mM MgCl2 and 0.5 nM [^35S]GTPgS (0.1 mCi/assay, PerkinElmer Life and Analytical Sciences) in a total volume of 250 ml and continued for 5 minutes in the absence or presence of 0.1-10 mM of an assayed compound of interest. The reaction was terminated by dilution with 750 ml of ice-cold reaction buffer that contained 20 mM MgCl2 and 1 mM EGTA and immediate centrifugation at 16,000×g for 5 minutes.
The resulting pellet was solubilized by sonicating for 10 seconds in 0.5 ml of immunoprecipitation buffer containing 0.5% digitonin, 0.2% sodium cholate and 0.5% NP-40. Normal rabbit serum (1 ml) was added to 1 ml of lysate and incubated at 25° C. for 30 minutes. Nonspecific immune complexes were removed by incubation with 25 ml of protein A/G-conjugated agarose beads at 25° C. for 30 minutes followed by centrifugation at 5,000×g at 4° C. for 5 minutes. The supernatant was divided and separately incubated at 25° C. for 30 minutes with antibodies raised against Gao proteins (1:1,000 dilutions).
The immunocomplexes so formed were collected by incubation at 25° C. for 30 minutes with 40 ml of agarose-conjugated protein A/G beads and centrifugation at 5,000×g at 4° C. for 5 minutes. The pellet was washed and suspended in buffer containing 50 mM Tris-HCl, pH 8.0, and 1% NP-40. The radioactivity in the suspension was determined by liquid scintillation spectrometry. […] DAMGO (1 or 10 mM) was used as a positive control.

[1] = 0.1 μM compound as agonist, Series C-2 table
[2] = 1 μM compound as agonist, Series C-2 table
[3] = 0.1 (unit uncertain) compound as agonist
[4] = 1 (unit uncertain) compound as agonist
[5] = 0.1 μM compound as agonist, Series C-1 table
[6] = 1 μM compound as agonist, Series C-1 table

T1 sequence (P33535 whole entry): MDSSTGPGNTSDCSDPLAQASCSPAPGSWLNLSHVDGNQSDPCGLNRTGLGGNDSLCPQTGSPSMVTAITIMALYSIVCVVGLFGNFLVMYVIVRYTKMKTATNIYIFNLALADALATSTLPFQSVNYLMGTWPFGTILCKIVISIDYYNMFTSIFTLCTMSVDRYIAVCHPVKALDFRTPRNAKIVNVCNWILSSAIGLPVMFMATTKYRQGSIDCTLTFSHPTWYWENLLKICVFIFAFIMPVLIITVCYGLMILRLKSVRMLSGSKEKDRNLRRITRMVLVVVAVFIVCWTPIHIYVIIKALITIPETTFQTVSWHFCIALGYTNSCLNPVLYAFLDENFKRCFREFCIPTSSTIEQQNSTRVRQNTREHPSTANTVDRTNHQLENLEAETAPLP

| SMILES | MOR agonist activity ([35S]GTPgS binding to Gao) [5] | MOR agonist activity ([35S]GTPgS binding to Gao) (1 μM + BFNA, Series C-1 table) | MOR agonist activity ([35S]GTPgS binding to Gao) [6] | further results |
| --- | --- | --- | --- | --- |
| O=C1CN(C2CCc3ccccc3C2)C2(CCN(S(=O)(=O)c3ccccc3)CC2)N1 (stereo not drawn) [C0136M/ (P5)] | – | – | – | MOR agonist activity ([35S]GTPgS binding to Gao) [1]: 176.8%; MOR agonist activity ([35S]GTPgS binding to Gao) (1 μM + BFNA, Series C-2 table): 74.5%; MOR agonist activity ([35S]GTPgS binding to Gao) [2]: 237.3% |
| O=C1CN(Cc2ccccc2)C2(CCN(C3CCCCC3)CC2)N1 [C0137M P7] | – | – | – | MOR agonist activity ([35S]GTPgS binding to Gao) [1]: 180.8%; MOR agonist activity ([35S]GTPgS binding to Gao) (1 μM + BFNA, Series C-2 table): 55.8%; MOR agonist activity ([35S]GTPgS binding to Gao) [2]: 193.8% |
| O=S(=O)(c1ccc(OC(F)(F)F)cc1)N1CCOC12CCN(CC1CC1)CC2 [Compound 4] | – | – | – | MOR agonist activity (preliminary study) (1 mM + bNFA): 49.5%; MOR agonist activity (preliminary study) [3]: 133.9%; MOR agonist activity (preliminary study) [4]: 165.2% |
| Cc1ccc(S(=O)(=O)N2CCOC23CCN(CC2CCC2)CC3)cc1 [Compound 9] | – | – | – | MOR agonist activity (preliminary study) (1 mM + bNFA): 56.6%; MOR agonist activity (preliminary study) [3]: 156.6%; MOR agonist activity (preliminary study) [4]: 197.2% |
| C=CCN1CCC2(CC1)OCCN2S(=O)(=O)c1ccc(C)cc1 [Compound 10] | – | – | – | MOR agonist activity (preliminary study) (1 mM + bNFA): 60.4%; MOR agonist activity (preliminary study) [3]: 163.1%; MOR agonist activity (preliminary study) [4]: 191.8% |
| COc1ccc(S(=O)(=O)N2CCC3(CC2)OCCN3S(=O)(=O)c2ccc(OC)cc2)cc1 [Compound 7866] | 152.3% | 62.4% | 308.2% | – |
| Cc1ccc(S(=O)(=O)N2CCC3(CC2)OCCN3S(=O)(=O)c2ccc(C)cc2)cc1 [Compound C0001] | 129.3% | 33.9% | 184.3% | – |
| COc1cccc(S(=O)(=O)N2CCC3(CC2)OCCN3S(=O)(=O)c2cccc(OC)c2)c1 [Compound C0002] | 88.4% | 3.9% | 93.8% | – |
| COc1ccccc1S(=O)(=O)N1CCC2(CC1)OCCN2S(=O)(=O)c1ccccc1OC [Compound C0003] | 162.3% | 107.7% | 215.9% | – |
| N#Cc1ccccc1S(=O)(=O)N1CCC2(CC1)OCCN2S(=O)(=O)c1ccccc1C#N [Compound C0004] | 122.0% | 65.8% | 228.4% | – |
| O=S(=O)(c1cccc(OC(F)(F)F)c1)N1CCC2(CC1)OCCN2S(=O)(=O)c1cccc(OC(F)(F)F)c1 [Compound C0005] | 180.4% | 166.4% | 227.2% | – |
| O=S(=O)(c1ccc(OC(F)(F)F)cc1)N1CCC2(CC1)OCCN2S(=O)(=O)c1ccc(OC(F)(F)F)cc1 [Compound C0006] | 121.5% | 4.6% | 204.0% | – |
| CC(C)c1ccc(S(=O)(=O)N2CCC3(CC2)OCCN3S(=O)(=O)c2ccc(C(C)C)cc2)cc1 [Compound C0007] | 79.1% | 10.9% | 195.0% | – |
| N#Cc1ccc(S(=O)(=O)N2CCC3(CC2)OCCN3S(=O)(=O)c2ccc(C#N)cc2)cc1 [Compound C0008] | 71.2% | 2.8% | 201.6% | – |
| CS(=O)(=O)c1ccc(S(=O)(=O)N2CCC3(CC2)OCCN3S(=O)(=O)c2ccc(S(C)(=O)=O)cc2)cc1 [Compound C0009] | 146.3% | 26.4% | 256.2% | – |
| O=S(=O)(c1ccc(-c2ccccc2)cc1)N1CCC2(CC1)OCCN2S(=O)(=O)c1ccc(-c2ccccc2)cc1 [Compound C0010] | 136.5% | 89.1% | 307.0% | – |

| SMILES | MOR agonist activity ([35S]GTPgS binding to Gao) [5] | MOR agonist activity ([35S]GTPgS binding to Gao) (1 μM + BFNA, Series C-1 table) | MOR agonist activity ([35S]GTPgS binding to Gao) [6] | further results |
| --- | --- | --- | --- | --- |
| CC(=O)c1ccc(S(=O)(=O)N2CCC3(CC2)OCCN3S(=O)(=O)c2ccc(C(C)=O)cc2)cc1 [Compound C0011] | 217.0% | 19.0% | 305.0% | MOR agonist activity ([35S]GTPgS binding to Gao) [1]: 217.0%; MOR agonist activity ([35S]GTPgS binding to Gao) (1 μM + BFNA, Series C-2 table): 19.0%; MOR agonist activity ([35S]GTPgS binding to Gao) [2]: 305.0% |
| O=S(=O)(c1ccc(C(F)(F)F)cc1)N1CCC2(CC1)OCCN2S(=O)(=O)c1ccc(C(F)(F)F)cc1 [Compound C0012] | 96.8% | 184.4% | 224.8% | – |
| CC(=O)Nc1ccc(S(=O)(=O)N2CCC3(CC2)OCCN3S(=O)(=O)c2ccc(NC(C)=O)cc2)cc1 [Compound C0013] | 156.6% | 39.6% | 301.2% | – |
| Cc1cccc(S(=O)(=O)N2CCC3(CC2)OCCN3S(=O)(=O)c2cccc(C)c2)c1 [Compound C0014] | 144.9% | 76.3% | 153.5% | – |
| Cc1ccccc1S(=O)(=O)N1CCC2(CC1)OCCN2S(=O)(=O)c1ccccc1C [Compound C0015] | 138.7% | 126.8% | 204.7% | – |
| O=S(=O)(c1ccccc1)N1CCC2(CC1)OCCN2S(=O)(=O)c1ccccc1 [Compound C0016] | 172.7% | 96.7% | 230.5% | – |
| COc1ccc(C(=O)N2CCC3(CC2)OCCN3C(=O)c2ccc(OC)cc2)cc1 [Compound C0017] | 153.8% | 94.1% | 284.5% | – |
| COc1ccc(C(=O)N2CCC3(CC2)OCCN3S(=O)(=O)c2ccc(OC)cc2)cc1 [Compound C0018] | 195.5% | 106.5% | 247.7% | – |
| COc1ccc(C(=O)N2CCOC23CCN(S(=O)(=O)c2ccc(OC)cc2)CC3)cc1 [Compound C0019] | 104.4% | 52.8% | 176.6% | – |
| O=C(O)c1ccc(C(=O)N2CCC3(CC2)OCCN3S(=O)(=O)c2ccc(C(=O)O)cc2)cc1 [Compound C0021] | 159.7% | 90.7% | 192.0% | – |
| O=C(c1ccc([N+](=O)[O-])cc1)N1CCC2(CC1)OCCN2S(=O)(=O)c1ccc([N+](=O)[O-])cc1 [Compound C0022] | 194.3% | 13.4% | 328.7% | – |
| CNc1ccc(S(=O)(=O)N2CCC3(CC2)OCCN3S(=O)(=O)c2ccc(NC)cc2)cc1 [Compound C0024] | 178.4% | 59.3% | 229.6% | – |
| O=S(=O)(c1ccc(Br)cc1)N1CCC2(CC1)OCCN2S(=O)(=O)c1ccc(Br)cc1 [Compound C0025] | 235.7% | 80.2% | 320.7% | – |
| COc1ccc(S(=O)(=O)N2CCC3(CC2)NCCO3)cc1 [Compound C0026] | – | – | – | MOR agonist activity ([35S]GTPgS binding to Gao) [1]: 207.2%; MOR agonist activity ([35S]GTPgS binding to Gao) (1 μM + BFNA, Series C-2 table): 21.2%; MOR agonist activity ([35S]GTPgS binding to Gao) [2]: 288.4% |
| COc1ccc(S(=O)(=O)N2CCOC23CCNCC3)cc1 [Compound C0027] | – | – | – | MOR agonist activity ([35S]GTPgS binding to Gao) [1]: 233.2%; MOR agonist activity ([35S]GTPgS binding to Gao) (1 μM + BFNA, Series C-2 table): 72.2%; MOR agonist activity ([35S]GTPgS binding to Gao) [2]: 313.9% |
